Like-named read-outs stand apart in the source and are kept apart here.
Columns and labels:
S. aureus 568 = assay: MIC, hospital methicillin-resistant strains (MRSA); settings: hospital MRSA strain S. aureus 568
[1] = test system: PC3 (metastatic prostate cancer); assay: Cytotoxicity, MTT assay; format: cell-based, human; settings: 72 h, mean SD
Method: (§1) MTT assay was performed as previously described. Experiments were repeated three times. […] Decreased relative MTT level means decreased cell viability.

[2] = test system: SW480 (primary colon cancer); assay: Cytotoxicity, MTT assay; format: cell-based, human; settings: 72 h, mean SD
Method: as §1

[3] = test system: SW620 (metastatic colon cancer); assay: Cytotoxicity, MTT assay; format: cell-based, human; settings: 72 h, mean SD
Method: as §1

[4] = test system: Bacillus subtilis H17 (rec+); settings: B. subtilis H17 (rec+); 256 µg per 9 mm disc (NOQ 2 µg per disc)
Method: (§2) DNA-damaging activity of compounds was tested by rec-assay using two genetically modified Bacillus subtilis strains: M45 (rec^−) and H17 (rec^+). Tested compounds were dissolved in DMSO, and 10 µL of each solution was dripped onto sterile cotton discs (Rotilabo) to load 256 µg of a given compound per 9 mm disc. Discs were placed on the surface Nutrient agar plates (Difco) inoculated with 100 µL of bacterial overnight culture and incubated for 24 h at 35 °C. After incubation, the growth inhibition zones were measured. […] Results of the genotoxicity test were estimated after 18 h of incubation at 35 °C by comparing the diameter of the inhibition zone on the B. subtilis M45 (rec^−) strain with that on the B. subtilis H17 (rec^+) strain.

[5] = test system: Bacillus subtilis M45 (rec−); settings: B. subtilis M45 (rec−); 256 µg per 9 mm disc (NOQ 2 µg per disc)
Method: as §2

S. aureus ATCC 25923 = assay: MIC, twofold serial microdilution, standard strains; settings: S. aureus ATCC 25923, standard strain
S. epidermidis 432 = assay: MIC, hospital methicillin-resistant strains (MRSE); settings: hospital MRSE strain S. epidermidis 432
[6] = test system: S. epidermidis ATCC 12228; assay: MIC, twofold serial microdilution, standard strains; settings: S. epidermidis ATCC 12228, standard strain
[7] = test system: S. epidermidis ATCC 35984; assay: as above; settings: S. epidermidis ATCC 35984, standard strain
S. epidermidis 510 = assay: MIC, hospital methicillin-resistant strains (MRSE); settings: hospital MRSE strain S. epidermidis 510
E. coli NCTC 10538 = assay: MIC, twofold serial microdilution, standard strains; settings: E. coli NCTC 10538, standard strain
S. aureus 586 = assay: MIC, hospital methicillin-resistant strains (MRSA); settings: hospital MRSA strain S. aureus 586
S. aureus 498 = assay: MIC, hospital methicillin-resistant strains (MRSA); settings: hospital MRSA strain S. aureus 498
[8] = test system: methicillin-resistant Staphylococci (MRSA, MRSE); settings: for MIC level against hospital staphylococcal strains: all hospital staphylococcal strains, Table 5
S. epidermidis 435 = assay: MIC, hospital methicillin-resistant strains (MRSE); settings: hospital MRSE strain S. epidermidis 435
C. albicans ATCC 90028 = assay: MIC, twofold serial microdilution, standard fungal strains; settings: C. albicans ATCC 90028, standard strain
S. aureus 496 = assay: MIC, hospital methicillin-resistant strains (MRSA); settings: hospital MRSA strain S. aureus 496
P. aeruginosa ATCC 27853 = assay: MIC, twofold serial microdilution, standard strains; settings: P. aeruginosa ATCC 27853, standard strain
S. epidermidis 436 = assay: MIC, hospital methicillin-resistant strains (MRSE); settings: hospital MRSE strain S. epidermidis 436
S. epidermidis 420 = assay: MIC, hospital methicillin-resistant strains (MRSE); settings: hospital MRSE strain S. epidermidis 420
S. aureus 514 = assay: MIC, hospital methicillin-resistant strains (MRSA); settings: hospital MRSA strain S. aureus 514
S. aureus ATCC 6538 = assay: MIC, twofold serial microdilution, standard strains; settings: S. aureus ATCC 6538, standard strain
S. aureus 495 = assay: MIC, hospital methicillin-resistant strains (MRSA); settings: hospital MRSA strain S. aureus 495
P. aeruginosa ATCC 15442 = assay: MIC, twofold serial microdilution, standard strains; settings: P. aeruginosa ATCC 15442, standard strain
S. epidermidis 471 = assay: MIC, hospital methicillin-resistant strains (MRSE); settings: hospital MRSE strain S. epidermidis 471
[9] = test system: C. parapsilosis ATCC 22019; assay: MIC, twofold serial microdilution, standard fungal strains; settings: C. parapsilosis ATCC 22019, standard strain
S. aureus NCTC 4163 = assay: MIC, twofold serial microdilution, standard strains; settings: S. aureus NCTC 4163, standard strain
C. albicans ATCC 10231 = assay: MIC, twofold serial microdilution, standard fungal strains; settings: C. albicans ATCC 10231, standard strain
S. aureus 497 = assay: MIC, hospital methicillin-resistant strains (MRSA); settings: hospital MRSA strain S. aureus 497
S. epidermidis 431 = assay: MIC, hospital methicillin-resistant strains (MRSE); settings: hospital MRSE strain S. epidermidis 431

With `FC(F)(F)c1cccc([N-]C(=S)Nc2cccc(Br)c2)c1.FC(F)(F)c1cccc([N-]C(=S)Nc2cccc(Br)c2)c1.[Cu+2]` [Cu4, Copper(II) Complex with 1-(3-bromophenyl)-3-[3-(trifluoromethyl)phenyl] thiourea] the MIC (S. aureus 568) was 8 µg/mL, the IC50 [1] was 70.1 ± 5.3 µM and the IC50 [2] was 89.8 ± 2.6 µM. The IC50 [3] was 69.1 ± 1.8 µM, the “Genotoxic activity, inhibition zone diameter, H17” value [4] was 15 mm and the “Genotoxic activity, inhibition zone diameter, M45” value [5] was 17 mm. It also gave an MIC (S. aureus ATCC 25923) of 8 µg/mL, an MIC (S. epidermidis 432) of 8 µg/mL and an MIC [6] of 8 µg/mL. The MIC [7] was 8 µg/mL, the MIC (S. epidermidis 510) was 8 µg/mL and the MIC (E. coli NCTC 10538) was 128 µg/mL. The MIC (S. aureus 586) was 8 µg/mL, the MIC (S. aureus 498) was 8 µg/mL and the “MIC level against hospital staphylococcal strains” value (from here on “MIC level”) [8] was 8 to 128 µg/mL. For the same molecule, the MIC (S. epidermidis 435) was 8 µg/mL, the MIC (C. albicans ATCC 90028) was ≥256 µg/mL and the MIC (S. aureus 496) was 8 µg/mL. The MIC (P. aeruginosa ATCC 27853) was 128 µg/mL, the MIC (S. epidermidis 436) was 8 µg/mL and the MIC (S. epidermidis 420) was 8 µg/mL. The MIC (S. aureus 514) was 8 µg/mL, the MIC (S. aureus ATCC 6538) was 4 µg/mL and the MIC (S. aureus 495) was 8 µg/mL. The MIC (P. aeruginosa ATCC 15442) was ≥256 µg/mL, the MIC (S. epidermidis 471) was 8 µg/mL and the MIC [9] was ≥256 µg/mL. The MIC (S. aureus NCTC 4163) was 8 µg/mL, the MIC (C. albicans ATCC 10231) was ≥256 µg/mL and the MIC (S. aureus 497) was 8 µg/mL. It also gave an MIC (S. epidermidis 431) of 8 µg/mL.
`CC(NC(=S)[N-]c1cccc(C(F)(F)F)c1)c1ccccc1.CC(NC(=S)[N-]c1cccc(C(F)(F)F)c1)c1ccccc1.[Cu+2]` (racemic) [Cu2, Copper(II) Complex with 1-(1-phenylethyl)-3-[3-(trifluoromethyl)phenyl]thiourea] was tested, and the MIC (S. aureus 568) was 8 µg/mL, the IC50 [1] was 89.7 ± 1.9 µM and the IC50 [2] was 41.6 ± 4.3 µM. For the same molecule, the IC50 [3] was 23.3 µM, the “Genotoxic activity, inhibition zone diameter, H17” value [4] was 16 mm and the “Genotoxic activity, inhibition zone diameter, M45” value [5] was 16 mm. It also gave an MIC (S. aureus ATCC 25923) of 32 µg/mL, an MIC (S. epidermidis 432) of 16 µg/mL and an MIC [6] of 32 µg/mL. For the same molecule, the MIC [7] was 16 µg/mL, the MIC (S. epidermidis 510) was 16 µg/mL and the MIC (E. coli NCTC 10538) was ≥256 µg/mL. For the same molecule, the MIC (S. aureus 586) was 8 µg/mL, the MIC (S. aureus 498) was 8 µg/mL and the “MIC level” value [8] was 8 to 128 µg/mL. It also gave an MIC (S. epidermidis 435) of 16 µg/mL, an MIC (C. albicans ATCC 90028) of 128 µg/mL and an MIC (S. aureus 496) of 16 µg/mL. For the same molecule, the MIC (P. aeruginosa ATCC 27853) was ≥256 µg/mL, the MIC (S. epidermidis 436) was 16 µg/mL and the MIC (S. epidermidis 420) was 16 µg/mL. The MIC (S. aureus 514) was 16 µg/mL, the MIC (S. aureus ATCC 6538) was 32 µg/mL and the MIC (S. aureus 495) was 16 µg/mL. For the same molecule, the MIC (P. aeruginosa ATCC 15442) was 128 µg/mL, the MIC (S. epidermidis 471) was 16 µg/mL and the MIC [9] was 128 µg/mL. The MIC (S. aureus NCTC 4163) was 32 µg/mL, the MIC (C. albicans ATCC 10231) was 128 µg/mL and the MIC (S. aureus 497) was 16 µg/mL. It also gave an MIC (S. epidermidis 431) of 16 µg/mL.
For `FC(F)(F)c1cccc([N-]C(=S)NCc2ccccc2)c1.FC(F)(F)c1cccc([N-]C(=S)NCc2ccccc2)c1.[Cu+2]` [Cu3, Copper(II) Complex with 1-benzyl-3-[3-(trifluoromethyl)phenyl]thiourea], the MIC (S. aureus 568) was 64 µg/mL, the IC50 [1] was 49.4 ± 2.4 µM and the IC50 [2] was 38.3 ± 3.1 µM. For the same molecule, the IC50 [3] was 44.8 ± 5.6 µM, the “Genotoxic activity, inhibition zone diameter, H17” value [4] was 15 mm and the “Genotoxic activity, inhibition zone diameter, M45” value [5] was 15 mm. It also gave an MIC (S. aureus ATCC 25923) of 64 µg/mL, an MIC (S. epidermidis 432) of 64 µg/mL and an MIC [6] of 64 µg/mL. For the same molecule, the MIC [7] was 64 µg/mL, the MIC (S. epidermidis 510) was 64 µg/mL and the MIC (E. coli NCTC 10538) was ≥256 µg/mL. For the same molecule, the MIC (S. aureus 586) was 64 µg/mL, the MIC (S. aureus 498) was 64 µg/mL and the “MIC level” value [8] was 8 to 128 µg/mL. For the same molecule, the MIC (S. epidermidis 435) was 64 µg/mL, the MIC (C. albicans ATCC 90028) was 32 µg/mL and the MIC (S. aureus 496) was 64 µg/mL. For the same molecule, the MIC (P. aeruginosa ATCC 27853) was ≥256 µg/mL, the MIC (S. epidermidis 436) was 64 µg/mL and the MIC (S. epidermidis 420) was 64 µg/mL. The MIC (S. aureus 514) was 64 µg/mL, the MIC (S. aureus ATCC 6538) was 64 µg/mL and the MIC (S. aureus 495) was 64 µg/mL. The MIC (P. aeruginosa ATCC 15442) was ≥256 µg/mL, the MIC (S. epidermidis 471) was 64 µg/mL and the MIC [9] was 32 µg/mL. The MIC (S. aureus NCTC 4163) was 64 µg/mL, the MIC (C. albicans ATCC 10231) was 32 µg/mL and the MIC (S. aureus 497) was 64 µg/mL. The MIC (S. epidermidis 431) was 64 µg/mL.
Work on `O.O=[N+]([O-])c1cc(NC(=S)[N-]c2cccc(C(F)(F)F)c2)ccc1Cl.O=[N+]([O-])c1cc(NC(=S)[N-]c2cccc(C(F)(F)F)c2)ccc1Cl.[Cu+2]` [Cu5, Copper(II) Complex with 1-(4-chloro-3-nitrophenyl)-3-[3-(trifluoromethyl)phenyl]thiourea] yielded an MIC (S. aureus 568) of 2 µg/mL, an IC50 [1] of 11.7 ± 0.9 µM and an IC50 [2] of 14.8 ± 1.2 µM. The IC50 [3] was 19.5 ± 1.3 µM, the “Genotoxic activity, inhibition zone diameter, H17” value [4] was 18 mm and the “Genotoxic activity, inhibition zone diameter, M45” value [5] was 17 mm. It also gave an MIC (S. aureus ATCC 25923) of 4 µg/mL, an MIC (S. epidermidis 432) of 2 µg/mL and an MIC [6] of 4 µg/mL. The MIC [7] was 4 µg/mL, the MIC (S. epidermidis 510) was 4 µg/mL and the MIC (E. coli NCTC 10538) was >256 µg/mL. For the same molecule, the MIC (S. aureus 586) was 4 µg/mL, the MIC (S. aureus 498) was 2 µg/mL and the “MIC, methicillin-resistant Staphylococci” value ([8]; 19 strains (above half) of tested hospital Staphylococci) was 2 µg/mL. For the same molecule, the “MIC, methicillin-resistant Staphylococci” value ([8]; S. aureus 537, 585, and 586 strains and half of the S. epidermidis isolates) was 4 µg/mL, the MIC (S. epidermidis 435) was 2 µg/mL and the MIC (C. albicans ATCC 90028) was 128 µg/mL. The MIC (S. aureus 496) was 2 µg/mL, the MIC (P. aeruginosa ATCC 27853) was >256 µg/mL and the MIC (S. epidermidis 436) was 2 µg/mL. For the same molecule, the MIC (S. epidermidis 420) was 4 µg/mL, the MIC (S. aureus 514) was 2 µg/mL and the MIC (S. aureus ATCC 6538) was 4 µg/mL. It also gave an MIC (S. aureus 495) of 2 µg/mL, an MIC (P. aeruginosa ATCC 15442) of 128 µg/mL and an MIC (S. epidermidis 471) of 4 µg/mL. For the same molecule, the MIC [9] was 128 µg/mL, the MIC (S. aureus NCTC 4163) was 4 µg/mL and the MIC (C. albicans ATCC 10231) was 128 µg/mL. The MIC (S. aureus 497) was 2 µg/mL and the MIC (S. epidermidis 431) was 2 µg/mL.
